From ChEMBL document CHEMBL1949597, “Novel vitamin D receptor ligands bearing a spherical hydrophobic core structure--comparison of bicyclic hydrocarbon derivatives with boron cluster derivatives” (Bioorg Med Chem Lett, 2012)
Activity calls are given as the source filed them. No cut-off for these calls is given here.

Target: T1, Vitamin D3 receptor (Homo sapiens) (UniProt P11473)
T1 sequence (whole entry): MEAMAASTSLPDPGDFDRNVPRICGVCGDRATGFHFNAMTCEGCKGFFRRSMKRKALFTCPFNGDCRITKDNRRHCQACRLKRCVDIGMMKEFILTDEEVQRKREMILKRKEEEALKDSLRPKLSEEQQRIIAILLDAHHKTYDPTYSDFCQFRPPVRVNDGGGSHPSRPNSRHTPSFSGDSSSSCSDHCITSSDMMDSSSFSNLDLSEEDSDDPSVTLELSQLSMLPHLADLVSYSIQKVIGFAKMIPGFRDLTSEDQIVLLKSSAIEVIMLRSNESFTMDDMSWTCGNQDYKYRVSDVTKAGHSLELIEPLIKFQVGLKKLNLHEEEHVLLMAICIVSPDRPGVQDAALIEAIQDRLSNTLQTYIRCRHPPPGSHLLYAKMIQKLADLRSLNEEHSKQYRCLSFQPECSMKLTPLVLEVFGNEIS
Test: Induction of vitamin D receptor-mediated differentiation of human HL60 cells at 10^-6 M by NBT reduction method
Format: cell-based
Conditions: HL-60

Activity: Active
Structure (SMILES): CCC(O)(CC)CCCCC12CCC(COCCC(O)CCO)(CC1)CC2 (stereo unspecified)
